Here are results for 2 molecules from publication PMC8389614, “A Comparison of Acute Pharmacological Effects of Methylone and MDMA Administration in Humans and Oral Fluid Concentrations as Biomarkers of Exposure” (Biology, 2021).

Each structure is given as a SMILES string.

Data set [1] is described as follows: Oral fluid to blood (OF/B) concentration ratio and plasma concentration. Conditions: human, 100 mg.
The test system of the next data set is 5-HT1A receptor. Details: method as in PMID 25237120, PMID 23583454. The following applies: cited from earlier work.

`CNC(C)Cc1ccc2c(c1)OCO2` (centres unmarked) [MDMA, 3,4-methylenedioxymethamphetamine]: in data set [1], the Kp (in general, tissue or fluid exposure divided by exposure in the circulation) amounted to 22.4. On to `CNC(C)C(=O)c1ccc2c(c1)OCO2` (centres unmarked) [Methylone, 3,4-methylenedioxymethcathinone], for which the “Activity at the 5-HT1A receptor” value with 5-HT1A receptor is “partial agonist”.
